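Grown in 96-well plates, cells were treated for 48 hours with each compound at five concentrations. Insufficient inhibition: endpoint recorded as highest concentration tested. The concentration for full growth arrest is given as TGI.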
Experiments:
Test in all cases: NCI anticancer screen, dose series, 48 h
[1] = system: KM12 colon
[2] = system: SK-MEL-2 melanoma
[3] = system: SR leukemia
[4] = system: COLO 205 colon
[5] = system: K-562 leukemia
[6] = system: HL-60(TB) leukemia
[7] = system: SNB-19 CNS
[8] = system: HT29 colon
[9] = system: SK-MEL-28 melanoma
[10] = system: MOLT-4 leukemia
[11] = system: SK-MEL-5 melanoma
[12] = system: M14 melanoma
[13] = system: IGROV1 ovarian
[14] = system: KM20L2 colon
[15] = system: EKVX NSCLC
[16] = system: HCC-2998 colon
[17] = system: RXF 393 renal
[18] = system: HS 578T breast
[19] = system: PC-3 prostate
[20] = system: NCI/ADR-RES ovarian

| Compound | TGI [1] [µM] | TGI [2] [µM] | TGI [3] [µM] | TGI [4] [µM] | TGI [5] [µM] | TGI [6] [µM] | TGI [7] [µM] | TGI [8] [µM] | TGI [9] [µM] | TGI [10] [µM] | TGI [11] [µM] | TGI [12] [µM] | TGI [13] [µM] | TGI [14] [µM] | TGI [15] [µM] | TGI [16] [µM] | TGI [17] [µM] | TGI [18] [µM] | TGI [19] [µM] | TGI [20] [µM] |
| --- | --- | --- | --- | --- | --- | --- | --- | --- | --- | --- | --- | --- | --- | --- | --- | --- | --- | --- | --- | --- |
| CCc1cccc(CC)c1NC(=O)C1=C(C)NC(C)=C(C(=O)Nc2c(CC)cccc2CC)C1c1ccc2c(c1)OCO2 | 36.5 | 33.7 | 65 | 26.2 | 38.2 | 26.4 | 33 | 30.4 | 35 | > 100 | 33 | 31.1 | 44.2 | 30.5 | 38.3 | 36.7 |  |  |  |  |
| CSc1nc2c(c(O)c(C)c(=O)n2C2OCC(OC(C)=O)C(OC(C)=O)C2OC(C)=O)c(=O)n1C (stereo not given) | > 100 | > 100 | > 100 | > 100 | > 100 | > 100 | > 100 | > 100 | > 100 | > 100 | > 100 | > 100 | > 100 | > 100 |  |  |  |  |  |  |
| CCN(CC)Cc1cc(Nc2c3ccccc3nc3c4ccccc4n(C)c23)ccc1O | 23.9 | 36.2 |  | 17.1 | 7.65 | 12.9 | 33.4 | 17.8 | 15.3 | 8.47 | 6.6 | 3.68 | 31.2 | 17.3 | 29.7 |  | 25.5 |  |  |  |
| Cc1nc2c(n1CCN(C)C)C(=O)c1ccccc1C2=O | 40.9 | 26.2 | 73.2 | 16.5 | 48.4 | 30.7 | 76.2 | 65.1 | > 100 | 62.1 | 20.4 | 24.1 | 26.5 | 25.8 | 32.2 | 47.7 | 68.2 |  |  |  |
| CC1C=C[C@H](Sc2ccccc2)CC[C@@]1(C)O (stereo not given in full) |  | > 100 |  | > 100 | > 100 | > 100 | > 100 | > 100 | > 100 | > 100 | > 100 | > 100 | > 100 | > 100 | > 100 | > 100 | > 100 |  |  |  |
| Cn1nc2ccc3nccc(N(CCO)CCO)c3c2n1 | > 100 | > 100 | > 100 | > 100 | > 100 | > 100 | > 100 | > 100 | > 100 | > 100 | > 100 | > 100 | > 100 | > 100 | > 100 | > 100 | > 100 |  |  |  |
| CCC1(N=[N+]=[N-])C(=O)c2ccccc2N(c2ccccc2)C1=O (stereo not given) | > 100 | > 100 | > 100 | > 100 | > 100 | > 100 | > 100 | > 100 | > 100 | > 100 | > 100 | > 100 | > 100 | > 100 | > 100 | > 100 |  |  |  |  |
| CC(=O)NC(CCCNC(=O)NCCCl)C(=O)NCc1ccccc1 (stereo not given) | > 100 | > 100 | > 100 | > 100 | > 100 | > 100 | > 100 | > 100 | > 100 | > 100 | > 100 | > 100 |  | > 100 | > 100 | > 100 | > 100 |  |  |  |
| COC(=O)CCc1cccnc1/C=N/O | > 100 | > 100 | > 100 | > 100 | > 100 | > 100 | > 100 | > 100 | > 100 | > 100 | > 100 | > 100 | > 100 | > 100 | > 100 |  | > 100 |  |  |  |
| COc1cc(C)c(C)c(OC(=O)c2c(C)c(C)c(OC)c(C)c2OC)c1C | 50.9 | 24.8 | 22 | 15.7 | 44.7 | 32.6 | > 100 | 23.5 | > 100 | 45.2 | 22.7 | 33.9 | > 100 | 19.6 | 98.3 | 53.1 | 39.7 |  |  |  |
| CCCCCCCCCCCCn1[nH]c(C)c(C(=S)SCCCCCCCC)c1=O | > 100 | > 100 | > 39.9 | > 100 | > 100 | > 75.7 | > 100 | > 100 | > 100 | > 77.2 | > 100 | > 100 | > 100 | > 100 | > 100 | > 100 | > 80.9 |  |  |  |
| COc1ccc(N2C(=O)[C@@H]3[C@H](C2=O)c2[nH]c4ccccc4c2C2CCC(C(C)(C)C)C[C@@H]23)cc1 (stereo not given in full) | > 100 | > 89.9 |  | > 84.2 | > 31.6 | > 100 | > 61.4 | > 100 | > 100 | > 100 | > 100 | > 100 | > 100 | > 100 | 81.4 | > 100 | 46 |  |  |  |
| CCCCNC(=O)CCN(C(=O)O)S(=O)(=O)c1ccc(NC(=O)c2ccccc2)cc1 | > 100 | > 100 | > 100 | > 100 | > 100 | > 100 | > 100 | 49.8 | > 100 | > 100 | > 100 | > 100 | > 100 | > 100 | > 100 | > 100 |  |  |  |  |
| CC(C)(Oc1ccc2c(=O)cc(-c3ccccc3)oc2c1)C(=O)Nc1c(Cl)cccc1Cl | > 100 | > 100 | > 100 |  | > 100 | > 100 | > 100 | > 100 | > 100 | > 100 | > 100 | > 100 | > 100 | > 100 | > 100 |  | 30.2 |  |  |  |
| Brc1ccc2c(c1)C1C(CO2)C(c2ccccc2)=NN1c1ccccc1 (stereo not given) | > 100 | > 100 |  | > 100 | > 100 | > 100 | > 100 | > 100 | > 100 | > 100 |  |  | > 100 | > 100 | > 100 | > 100 | > 100 |  |  |  |
| O=C1CCCCCC1CC(Sc1ccccc1)Sc1ccccc1 (stereo not given) | > 100 | > 100 | > 100 | > 100 | > 100 | 52.7 | > 100 | > 100 | > 100 | 47.3 | > 100 | > 100 | > 100 |  | > 100 | > 100 | > 100 | > 100 | > 100 | > 100 |
| COc1cc([C@@H]2c3cc4c(cc3[C@@H](c3c(O)cc(O)c5c3O[C@H](c3ccc(O)c(O)c3)[C@H](OC(=O)c3cc(O)c(O)c(O)c3)C5)[C@H]3COC(=O)[C@H]23)OCO4)cc(OC)c1OC | > 100 | > 100 | 8.14 | 90 | > 100 | 0.729 | > 100 | > 75.9 | > 100 | > 100 | > 100 | > 100 | > 100 |  | > 100 | 71.7 | > 100 | > 100 | > 77.8 | > 100 |
| COC(=O)c1ccccc1NC(=O)C(=O)CC(=O)CC(c1ccccc1)c1c(O)c2ccccc2oc1=O (stereo not given) | > 100 | > 100 | > 100 | > 100 |  | > 100 | > 100 | > 100 | > 100 | > 100 | > 100 | > 100 | > 100 | > 100 | > 100 | > 100 | > 100 |  |  |  |
| COc1cccc(NC(=O)CC(=O)N2N=C(C)C(N=Nc3ccc(S(=O)(=O)CCOS(=O)(=O)O)cc3)C2=O)c1 (stereo not given) | 36 | 6.23 | > 100 | 31.5 | > 100 | 6.85 | 33.9 | 13.8 | 16.9 | > 100 | 13.3 | 20.2 | 17.3 |  | 31.9 | 29.1 | 15.9 | 88 | 14.5 | > 100 |
| Nc1cc(-c2ccc(Cl)cc2)nn1-c1nc2ccccc2nc1-c1ccccc1 | > 100 | > 100 | > 100 | > 100 | > 100 | > 100 | > 100 | > 100 | > 100 | > 100 | > 100 | > 100 | > 100 |  | > 100 | > 100 | > 100 | > 100 | > 100 | > 100 |
| C/C(CC(=O)NC1=CC=C(NC(=O)C/C(C)=N\Nc2ccccc2)CC1)=N/Nc1ccccc1 | > 100 | > 100 | > 100 | > 100 | > 100 | > 100 | > 100 | > 100 | > 100 | > 100 | > 100 | > 100 | > 100 | > 100 | > 100 | > 100 | > 100 |  |  |  |
| CCSC1=N/C(=C/c2ccccc2O)C(=O)N1 | > 100 | > 100 | > 100 | > 100 | > 100 | > 100 | > 100 | > 100 | > 100 | > 100 | > 100 | > 100 | > 100 |  | > 100 | > 100 | 68.1 | > 100 | > 100 | > 100 |
